≈ marks a conversion by molar mass, not a printed value. Where two headings read alike, the source gives them in different places.
Experiments:
Assay in all cases: MIC by agar dilution method
Type in all cases: cell-based
[1] = tested on: Staphylococcus aureus ATCC 25923
[2] = tested on: Staphylococcus epidermis OKI 110001; details: OKI110001
[3] = tested on: Escherichia coli OKI 35034
[4] = tested on: Proteus vulgaris OKI 60002
[5] = tested on: Pseudomonas aeruginosa ATCC 27853; details: ATCC27853
[6] = tested on: Helicobacter pylori 27604
[7] = tested on: Helicobacter pylori 27606
[8] = tested on: Streptococcus fecalis OKI 80171; details: OKI80171, Streptococcus fecalis OKI 80171, agar dilution
[9] = tested on: Salmonella typhi OKI 10084; details: Salmonella enterica, Salmonella typhi OKI 10084, agar dilution
[10] = ATCC25923, Staphylococcus aureus ATCC 25923, agar dilution, read-out: MIC
[11] = Escherichia coli, OKI35034, Escherichia coli OKI 35034, agar dilution, read-out: MIC
[12] = Proteus vulgaris, OKI60002, Proteus vulgaris OKI 60002, agar dilution, read-out: MIC
[13] = Helicobacter pylori 27604, agar dilution, read-out: MIC
[14] = Helicobacter pylori 27606, agar dilution, read-out: MIC

SMILES | MIC [1, 10] [µg/mL] | MIC ([2]; Staphylococcus epidermis OKI 110001, agar dilution, read-out: MIC) [µg/mL] | MIC ([3]; Escherichia coli OKI 35034, agar dilution) [µg/mL] | MIC [3, 11] [µg/mL] | MIC ([4]; Proteus vulgaris OKI 60002, agar dilution) [µg/mL] | MIC [4, 12] [µg/mL] | MIC ([5]; Pseudomonas aeruginosa ATCC 27853, agar dilution, read-out: MIC) [µg/mL] | MIC [6, 13] [µg/mL] | MIC [7, 14] [µg/mL] | MIC ([1]; ATCC25923) [µg/mL] | MIC ([2]; Staphylococcus) [µg/mL] | MIC [8] [µg/mL] | MIC ([9]; read-out: MIC) [µg/mL] | MIC ([3]; Escherichia coli, OKI35034, Escherichia coli OKI 35034, agar dilution) [µg/mL] | MIC ([4]; Proteus vulgaris, OKI60002) [µg/mL] | MIC ([5]; Pseudomonas aeruginosa) [µg/mL] | MIC ([6]; Helicobacter pylori, 27604) [µg/mL] | MIC ([7]; Helicobacter pylori, 27606) [µg/mL] | MIC ([9]; TYPHI) [µg/mL]
CC1(C)S[C@@H]2[C@H](NC(=O)[C@H](N)c3ccc(O)cc3)C(=O)N2[C@H]1C(=O)O [Amoxicillin, amoxicillin] | ≥ 0.39 | ≥ 0.39 | 50 (≈ 137 µM) | 25 (≈ 68.4 µM) | 100 (≈ 274 µM) | 50 (≈ 137 µM) | > 100 | ≥ 0.39 | ≥ 0.39 | – | – | – | – | – | – | – | – | – | –
CCOP(=O)(OCC)C(CSCC(=O)OCOC(=O)N1CCN(c2cc3c(cc2F)c(=O)c(C(=O)O)cn3CC)CC1)P(=O)(OCC)OCC [Example 1 B, 7-(4-((2,2-Bis-(diethoxyphosphoryl)-ethylsulfanyl)-acetoxymethoxycarbonyl)-piperazin-1-yl)-1-ethyl-6-fluoro-4-oxo-1,4-dihydroquinoline-3-carboxylic acid] | – | – | – | – | – | – | – | – | – | 6.25 (≈ 8.14 µM) | 1.56 (≈ 2.03 µM) | 12.5 (≈ 16.3 µM) | ≥ 0.78 | ≥ 0.39 | 1.56 (≈ 2.03 µM) | 12.5 (≈ 16.3 µM) | 6.25 (≈ 8.14 µM) | 3.12 (≈ 4.06 µM) | –
CCn1cc(C(=O)O)c(=O)c2cc(F)c(N3CCNCC3)cc21 [Norfloxacin, norfloxacin] | 6.25 (≈ 19.6 µM) | – | – | ≥ 0.39 | – | 0.78 (≈ 2.44 µM) | – | 6.25 (≈ 19.6 µM) | 6.25 (≈ 19.6 µM) | – | 1.56 (≈ 4.89 µM) | 12.5 (≈ 39.1 µM) | – | – | – | 12.5 (≈ 39.1 µM) | – | – | ≥ 0.39

Source: patent publication US6333424A, “Therapeutic derivatives of diphosphonates” (priority 1999, dated 2001)
